Results published in publication PMC12669672, “Structural insights into selective and dual antagonism of EP2 and EP4 prostaglandin receptors” (The EMBO Journal, 2025).
pIC50: −log10 of the molar value. Where “and” joins values, the source holds several entries; their conditions need not be identical. Equal values may be shown once.

Key:
Assay in all cases: GloSensor cAMP assay, inhibition of constitutive activity
Assay type in all cases: cell-based
[1] = biological target: T1, constitutively active EP4 WT (Homo sapiens, UniProt P35408)
T1 construct: The full-length EP2 or EP4 was cloned into the pcDNA3.1 vector (Invitrogen), incorporating an N-terminal FLAG tag; expressed in transfected cells; host or cells: AD293
T1 sequence (P35408 whole entry): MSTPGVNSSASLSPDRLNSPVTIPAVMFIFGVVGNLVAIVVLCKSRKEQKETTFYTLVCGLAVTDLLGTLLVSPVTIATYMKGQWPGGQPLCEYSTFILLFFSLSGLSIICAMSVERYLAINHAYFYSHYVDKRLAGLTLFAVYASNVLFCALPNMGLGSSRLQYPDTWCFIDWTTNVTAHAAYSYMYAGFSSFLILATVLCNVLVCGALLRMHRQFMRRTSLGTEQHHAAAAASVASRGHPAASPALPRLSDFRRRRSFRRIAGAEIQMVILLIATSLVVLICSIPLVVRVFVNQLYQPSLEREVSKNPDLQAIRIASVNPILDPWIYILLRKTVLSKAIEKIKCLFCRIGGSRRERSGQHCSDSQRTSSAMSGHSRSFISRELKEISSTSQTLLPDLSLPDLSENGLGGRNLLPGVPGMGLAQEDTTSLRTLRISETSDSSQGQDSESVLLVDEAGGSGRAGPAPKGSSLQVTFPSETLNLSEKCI
Experimental: (§1) The full-length EP2 or EP4 was cloned into the pcDNA3.1 vector (Invitrogen), incorporating an N-terminal FLAG tag. AD293 cells were seeded in six-well plates containing DMEM supplemented with 10% dialyzed FBS 1 day prior to transfection. Following overnight growth, cells were transfected with a 1:1 ratio of receptor construct and GloSensor22F cAMP biosensor (Promega) plasmids.
(§2) Twenty-four hours post-transfection, the cells were transferred to CO2-independent media containing 2% GloSensor cAMP Reagent (Promega) and distributed into 384-well assay plates at a density of 4000 cells per well in 10 μL. […] The plates were then incubated at 37 °C for an additional hour before luminescence measurements were taken using an EnVision plate reader.
(§3) Data analysis was performed using GraphPad Prism software v8.0.1. A nonlinear regression analysis, employing a sigmoidal dose–response model, was conducted to determine the Emax values and half-maximum inhibitory concentrations (IC50) for each compound tested.

[2] = biological target: T2, constitutively active EP4 S319A (Homo sapiens, UniProt P35408, S319A); settings: for ΔpIC50: no PGE2, pIC50 mutant - pIC50 WT, mean
T2 construct: The full-length EP2 or EP4 was cloned into the pcDNA3.1 vector (Invitrogen), incorporating an N-terminal FLAG tag; expressed in transfected cells; host or cells: AD293
T2 sequence (P35408 whole entry S319A): as the sequence (P35408 whole entry) above, with S319A counted along it
Experimental: as §1, §2, §3

[3] = biological target: T3, constitutively active EP4 V72A (Homo sapiens, UniProt P35408, V72A); settings: for ΔpIC50: no PGE2, pIC50 mutant - pIC50 WT, mean
T3 construct: The full-length EP2 or EP4 was cloned into the pcDNA3.1 vector (Invitrogen), incorporating an N-terminal FLAG tag; expressed in transfected cells; host or cells: AD293
T3 sequence (P35408 whole entry V72A): as the sequence (P35408 whole entry) above, with V72A counted along it
Experimental: as §1, §2, §3

[4] = biological target: T4, constitutively active EP4 V320A (Homo sapiens, UniProt P35408, V320A); settings: for ΔpIC50: no PGE2, pIC50 mutant - pIC50 WT, mean
T4 construct: The full-length EP2 or EP4 was cloned into the pcDNA3.1 vector (Invitrogen), incorporating an N-terminal FLAG tag; expressed in transfected cells; host or cells: AD293
T4 sequence (P35408 whole entry V320A): as the sequence (P35408 whole entry) above, with V320A counted along it
Experimental: as §1, §2, §3

How did the pIC50 [1] turn out when `CCc1nc2c(C)nc(C)cc2n1-c1ccc(CCNC(=O)NS(=O)(=O)c2ccc(C)cc2)cc1` [Grapiprant] was run?
Its pIC50 is 8.37.

And the remaining activity at 0.1 µM ([1]; 1 h, Grapiprant log([M]) -7.00, EP4-WT, read-out: % cAMP activity (normalized to WT))?
Its remaining activity at 0.1 µM is 4.26%.

And the remaining activity at 0.01 µM ([1]; 1 h, Grapiprant log([M]) -8.00, EP4-WT, read-out: % cAMP activity (normalized to WT))?
Its remaining activity at 0.01 µM is 24.2%.

And the remaining activity at 0.001 µM ([1]; 1 h, Grapiprant log([M]) -9.00, EP4-WT, read-out: % cAMP activity (normalized to WT))?
The remaining activity at 0.001 µM was 84.9%.

What about the remaining activity at 0.0001 µM ([1]; 1 h, Grapiprant log([M]) -10.00, EP4-WT, read-out: % cAMP activity (normalized to WT)) of the same molecule?
Its remaining activity at 0.0001 µM is 92.5%.

What about the remaining activity at 10 pM ([1]; 1 h, Grapiprant log([M]) -11.00, EP4-WT, read-out: % cAMP activity (normalized to WT)) of the same molecule?
The remaining activity at 10 pM was 101%.

And the remaining activity at 1 pM ([1]; 1 h, Grapiprant log([M]) -12.00, EP4-WT, read-out: % cAMP activity (normalized to WT))?
Its remaining activity at 1 pM is 101%.

And the “Grapiprant cAMP activity (∆pIC50 from EP4 WT)” value ([1]; WT, single experiments 1st-3rd)?
The value was 0.061 and -0.077 and -0.012.

What about the pIC50 [2] of the same molecule?
Its pIC50 is 7.78.

What about the remaining activity at 0.1 µM ([2]; 1 h, Grapiprant log([M]) -7.00, EP4-S319A, read-out: % cAMP activity (normalized to WT)) of the same molecule?
The remaining activity at 0.1 µM was 23.1%.

And the remaining activity at 0.01 µM ([2]; 1 h, Grapiprant log([M]) -8.00, EP4-S319A, read-out: % cAMP activity (normalized to WT))?
The remaining activity at 0.01 µM was 84.7%.

And the remaining activity at 0.001 µM ([2]; 1 h, Grapiprant log([M]) -9.00, EP4-S319A, read-out: % cAMP activity (normalized to WT))?
Its remaining activity at 0.001 µM is 130%.

What about the remaining activity at 1 pM ([2]; 1 h, Grapiprant log([M]) -12.00, EP4-S319A, read-out: % cAMP activity (normalized to WT)) of the same molecule?
The remaining activity at 1 pM was 118%.

What about the “Grapiprant cAMP activity (∆pIC50 from EP4 WT), Mean” value (shortened to “Grapiprant cAMP activity … Mean”) ([2]; S319A, Mean) of the same molecule?
The value was -0.598.

What about the ΔpIC50 [2] of the same molecule?
Its ΔpIC50 is -0.60 ± 0.09.

What about the ΔpIC50 ([2]; listed as grapiprant) of the same molecule?
Its ΔpIC50 is “reduced the potency”.

And the pIC50 [3]?
The pIC50 was 7.73.

And the remaining activity at 0.1 µM ([3]; 1 h, Grapiprant log([M]) -7.00, EP4-V72A, read-out: % cAMP activity (normalized to WT))?
Its remaining activity at 0.1 µM is 8.15%.

And the remaining activity at 0.01 µM ([3]; 1 h, Grapiprant log([M]) -8.00, EP4-V72A, read-out: % cAMP activity (normalized to WT))?
The remaining activity at 0.01 µM was 28%.

What about the remaining activity at 0.001 µM ([3]; 1 h, Grapiprant log([M]) -9.00, EP4-V72A, read-out: % cAMP activity (normalized to WT)) of the same molecule?
Its remaining activity at 0.001 µM is 48.8%.

What about the remaining activity at 0.0001 µM ([3]; 1 h, Grapiprant log([M]) -10.00, EP4-V72A, read-out: % cAMP activity (normalized to WT)) of the same molecule?
Its remaining activity at 0.0001 µM is 35.6%.

What about the remaining activity at 10 pM ([3]; 1 h, Grapiprant log([M]) -11.00, EP4-V72A, read-out: % cAMP activity (normalized to WT)) of the same molecule?
Its remaining activity at 10 pM is 41%.

What about the remaining activity at 1 pM ([3]; 1 h, Grapiprant log([M]) -12.00, EP4-V72A, read-out: % cAMP activity (normalized to WT)) of the same molecule?
Its remaining activity at 1 pM is 39%.

And the “Grapiprant cAMP activity … Mean” value ([3]; V72A, Mean)?
The value was -0.652.

And the “Grapiprant cAMP activity (∆pIC50 from EP4 WT)” value ([3]; V72A, single experiments 1st-3rd)?
The value was -0.771 and -0.507 and -0.679.

What about the ΔpIC50 [3] of the same molecule?
The ΔpIC50 was -0.65 ± 0.08.

What about the ΔpIC50 ([3]; listed as grapiprant) of the same molecule?
The ΔpIC50 was “reduced the potency”.

What about the pIC50 [4] of the same molecule?
Its pIC50 is 7.95.

And the remaining activity at 0.1 µM ([4]; 1 h, Grapiprant log([M]) -7.00, EP4-V320A, read-out: % cAMP activity (normalized to WT))?
The remaining activity at 0.1 µM was 7.66%.

And the remaining activity at 0.01 µM ([4]; 1 h, Grapiprant log([M]) -8.00, EP4-V320A, read-out: % cAMP activity (normalized to WT))?
The remaining activity at 0.01 µM was 35.4%.

What about the remaining activity at 0.001 µM ([4]; 1 h, Grapiprant log([M]) -9.00, EP4-V320A, read-out: % cAMP activity (normalized to WT)) of the same molecule?
Its remaining activity at 0.001 µM is 48.1%.

And the remaining activity at 0.0001 µM ([4]; 1 h, Grapiprant log([M]) -10.00, EP4-V320A, read-out: % cAMP activity (normalized to WT))?
The remaining activity at 0.0001 µM was 61.4%.

And the remaining activity at 10 pM ([4]; 1 h, Grapiprant log([M]) -11.00, EP4-V320A, read-out: % cAMP activity (normalized to WT))?
The remaining activity at 10 pM was 56.1%.

And the remaining activity at 1 pM ([4]; 1 h, Grapiprant log([M]) -12.00, EP4-V320A, read-out: % cAMP activity (normalized to WT))?
The remaining activity at 1 pM was 50.8%.

And the “Grapiprant cAMP activity … Mean” value ([4]; V320A, Mean)?
The value was -0.388.

What about the ΔpIC50 [4] of the same molecule?
Its ΔpIC50 is -0.39 ± 0.12.

And the ΔpIC50 ([4]; listed as grapiprant)?
The ΔpIC50 was “reduced the potency”.
